Target: T1, C3a anaphylatoxin chemotactic receptor (Homo sapiens, UniProt Q16581)
T1 sequence (Q16581 whole entry): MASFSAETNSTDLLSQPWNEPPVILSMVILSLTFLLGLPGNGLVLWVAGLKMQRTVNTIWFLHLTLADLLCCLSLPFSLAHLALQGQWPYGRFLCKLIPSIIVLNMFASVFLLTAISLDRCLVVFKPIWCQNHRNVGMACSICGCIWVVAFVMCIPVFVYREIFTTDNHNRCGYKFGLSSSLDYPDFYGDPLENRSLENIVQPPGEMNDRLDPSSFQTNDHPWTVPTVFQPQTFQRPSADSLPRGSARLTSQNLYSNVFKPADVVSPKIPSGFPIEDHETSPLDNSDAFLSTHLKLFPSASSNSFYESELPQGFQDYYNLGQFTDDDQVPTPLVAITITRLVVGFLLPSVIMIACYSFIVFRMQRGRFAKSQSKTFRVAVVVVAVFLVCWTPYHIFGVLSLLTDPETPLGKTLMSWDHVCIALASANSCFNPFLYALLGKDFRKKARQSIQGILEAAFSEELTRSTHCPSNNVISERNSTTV
Test: Displacement of [125I-C3a] from C3a receptor in human PBMC by scintillation counting

In the case of NC(N)=NCCC[C@H](NC(=O)COCC(c1ccccc1)c1ccccc1)C(=O)O [(S)-2-(2-(2,2-diphenylethoxy)acetamido)-5-guanidinopentanoic acid], the IC50 is reported as 125 nM.

Reference: BindingDB's records for doi:10.1021/jm1003705 (The University of Queensland, 2010)
